From patent publication US11278526B2, “Compounds and methods for treating lupus” (RECEPTOS LLC, priority 2016, dated 2022)

Key:
Format in all cases: in vivo
S1P1R = target: T1, S1P1R (Mus musculus, UniProt O08530); assay: S1P1R cell surface expression on splenic CD4+ T cells by flow cytometry; details: NZBWF1 mice, splenocytes at termination; 0.3, 1.0, 3.0 mg/kg PO QD
T1 construct: from tissue; host or cells: spleen
Excerpt: S1P1R is expressed on T and B lymphocytes and is the target for modulation by compound 5. Following agonism of the receptor by compound 5, the receptor is internalized and degraded. To determine whether internalization is occurring in T cells following compound dosing in vivo, both naïve and activated CD4+ T cells were examined for cell surface expression of S1P1R. At termination, spleens were harvested and splenocytes isolated and analyzed for immune cell populations by antibody staining and flow cytometry. S1P1R expression was measured on both activated CD4+ T cells (CD3+CD4+CD44+CD62L−) and naïve T cells (CD3+CD4+CD44−CD62L+).

profibrotic genes = assay: Kidney mRNA levels of profibrotic genes; details: NZBWF1 mice
Experimental: As explained above, SLE is characterized by aberrant recognition of healthy “self” tissue as antigenic. The resulting immune response is characterized by inflammation. To measure SLE status, mRNA levels were measured for an array of inflammatory and immune response genes from kidneys collected at termination or week 23 (naïve) and stored in RNAlater (n=5). mRNA was quantified using QuantiGene Multiplex Assay.
SLE-related inflammation can lead to fibrotic scarring. mRNA levels were measured for an array of profibrotic genes. […] Expression signals of MMP10, IL-2, IL-6, and TNF were also measured, but were below LLOQ (data not shown).

IFN-inducible genes = assay: mRNA expression of genes responsive to type-1 interferon signaling; details: NZBWF1 mice; 3 mpk PO

T1 sequence (O08530 whole entry): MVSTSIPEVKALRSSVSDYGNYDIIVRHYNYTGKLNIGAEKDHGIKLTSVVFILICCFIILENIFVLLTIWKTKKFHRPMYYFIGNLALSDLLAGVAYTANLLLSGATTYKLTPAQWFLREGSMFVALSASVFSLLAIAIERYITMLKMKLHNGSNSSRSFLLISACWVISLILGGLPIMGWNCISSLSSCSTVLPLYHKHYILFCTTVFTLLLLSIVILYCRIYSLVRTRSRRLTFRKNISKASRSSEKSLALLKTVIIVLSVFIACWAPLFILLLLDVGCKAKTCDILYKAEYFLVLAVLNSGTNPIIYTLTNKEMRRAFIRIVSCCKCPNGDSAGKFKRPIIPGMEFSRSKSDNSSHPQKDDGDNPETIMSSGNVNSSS

SMILES | S1P1R expression on activated CD4+ T cells (CD3+CD4+CD44+CD62L−) (S1P1R) | S1P1R expression on naïve CD4+ T cells (CD3+CD4+CD44−CD62L+) (S1P1R) | mRNA level of Cdcd88a/Girdin relative to control (profibrotic genes; 3 mpk PO) | mRNA level of LOXL1 relative to control (profibrotic genes; 3 mpk PO) | mRNA level of Lipocalin 2 relative to control (profibrotic genes; 3 mpk PO) | mRNA level of TGFβ2 relative to control (profibrotic genes; 3 mpk PO) | mRNA level of TIMP1 relative to control (profibrotic genes; 3 mpk PO) | mRNA level of Transgelin relative to control (profibrotic genes; 3 mpk PO) | IFGBP2 mRNA levels (profibrotic genes; following administration of compound 148) | Expression levels of IFN-inducible genes (mRNA) (IFN-inducible genes)
CC(C)Oc1ccc(-c2nc(-c3cccc4c3CC[C@@H]4NCCO)no2)cc1C#N [compound 5, (S)-5-(3-(1-(2-hydroxyethylamino)-2,3-dihydro-1H-inden-4-yl)-1,2,4-oxadiazol-5-yl)-2-isopropoxy benzonitrile] | reduced in a dose-dependent manner | reduced in a dose-dependent manner |  |  |  |  |  |  |  | 
CC(C)Oc1ccc(-c2nc(-c3cccc4c3CC[C@@H]4N)no2)cc1C#N [compound 148, (S)-5-(3-(1-amino-2,3-dihydro-1H-inden-4-yl)-1,2,4-oxadiazol-5-yl)-2-isopropoxy-benzonitrile] |  |  | decreased levels | decreased levels | decreased levels | decreased levels | decreased levels | decreased levels | appeared to increase somewhat | no significant effect
